Results: PubChem BioAssay AID504322 (Emory University Molecular Libraries Screening Center, 2011)
Calls of active or inactive are those of the source. The rule behind the calls is not given here.

System: CHOP reporter cell assay, percent of control
Assay: CHOP reporter inhibitor potency, dose response, cell-based (AID 504322);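 note: CHO cells carrying a CHOP reporter stimulated with tunicamycin to induce ER stress; potency is for inhibition of the stress-induced reporter signal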

SMILES	IC50
O=C1C(C2=NC(c3ccccn3)C3C(=O)N(c4ccc(Cl)cc4Cl)C(=O)C23)=C(O)c2ccccc21 (stereo not drawn)	7.17 µM (inactive)
Cc1ccc(-c2cc3c(nn2)-c2ccccc2C3=O)cc1	6.03 µM (inactive)
Cc1cc(Cl)n2c(nc3ccccc32)c1C#N	> 10 µM (inactive)
Cc1nn(CCC#N)c2nc(-c3ccccc3)cc(C(F)(F)F)c12	4 µM (inactive)
COc1ccc(NS(=O)(=O)c2ccc(O)c(NC(=O)c3cc4c(C)nn(-c5ccc(F)cc5)c4s3)c2)cc1	6.99 µM (inactive)
O=c1c(Cl)c(Cl)cnn1Cc1nnc(-c2ccccc2Br)o1	3.77 µM
COc1ccccc1-n1cc([C@@H]2C[C@H]3CN(c4ccccc4)C(=O)[C@]34CCCN24)cn1	1.89 µM
Cc1ccc(-c2nc(N)sc2-c2ccc(C)cc2)cc1	9.83 µM (inactive)
CC(C)Cn1c(N)c(C(=O)COC(=O)C2CCCCC2)c(=O)n(C)c1=O	> 10 µM (inactive)
CCc1ccc(OCc2n[nH]c(=S)n2C(C)CCCC(C)C)cc1 (stereo not drawn)	2.44 µM
CCCCCCCC(=O)N/N=C/c1ccc(Br)cc1	3.51 µM
O=C(NC(c1ccccc1)c1c(O)ccc2ccccc12)c1ccccc1Cl (stereo not drawn)	> 10 µM (inactive)
O=C(Nc1ccc([N+](=O)[O-])cc1)Nc1ccc(OC(F)F)c(Cl)c1	6.4 µM (inactive)
O=C(O)c1ccc(N/N=C/c2ccc3nccnc3c2)cc1	6.06 µM (inactive)
C=CCn1c(SCC(=O)Nc2ccc(-c3nc4ccc(C)cc4s3)cc2)nnc1-c1ccccc1	9.89 µM (inactive)
O=C(NCc1ccccc1)c1cc(-c2ccncc2)nc2ccc(S(=O)(=O)N3CCOCC3)cc12	9.8 µM (inactive)
Cn1c(=O)[nH]c(=O)c2[nH]c(N(Cc3ccccc3)Cc3ccccc3)nc21	6.18 µM (inactive)
CC1=CCC[C@@H]2[C@@](C)(CC/C(C)=C/C(=O)O)[C@H](C)CC[C@@]12C	9.68 µM (inactive)
CS(=O)(=O)c1ccc(S(=O)CC(=O)OCc2ccccc2)c([N+](=O)[O-])c1 (stereo not drawn)	> 10 µM (inactive)
O=C(COc1ccc(Cl)cc1Cl)Nc1ccccn1	2.43 µM
COc1ccc(-c2[nH]ncc2/C=C(/C#N)C(=O)NC2CCCCCC2)cc1	9.23 µM (inactive)
Cc1cccc(NCC(=O)N/N=C\c2cccc(Oc3ccccc3)c2)c1	8.02 µM (inactive)
CC1=CC(=O)C=C(C)C1=NOS(=O)(=O)c1ccccc1	5.48 µM (inactive)
COc1cc(C)nc(N2CCCC(C(=O)Nc3cccc(Cl)c3C)C2)n1 (stereo not drawn)	6.3 µM (inactive)

SMILES	IC50
O=C1c2[nH]nc(-c3ccccc3O)c2C(c2cccc(Cl)c2)N1Cc1ccco1 (stereo not drawn)	9.62 µM (inactive)
Cc1ccccc1N1CCN(C(=O)c2ccc(Oc3ccc(C(F)(F)F)cn3)cc2)CC1	3.48 µM (inactive)
CN=C1SC(CC(=O)Nc2ccc(F)cc2F)C(=O)N1/N=C/c1ccc(OC(F)F)c(OC)c1 (stereo not drawn)	9.78 µM (inactive)
O=C1CC(c2cccc(Cl)c2)CC(O)=C1C=Nc1cccc(Cl)c1 (stereo not drawn)	9.72 µM (inactive)
C=CCOC(=O)C1=C(C)NC(C)=C(C(=O)OCC=C)C1/C=C/c1ccccc1	5.02 µM (inactive)
CC(CNC(=S)Nc1cc(F)cc(F)c1)CSc1ccc(Cl)cc1 (stereo not drawn)	> 10 µM (inactive)
CCCCC(CC)Cn1c(N)c(C#N)c2nc3ccccc3nc21 (stereo not drawn)	3.98 µM
Cc1cc(Cl)ccc1OCc1n[nH]c(=S)n1C1CCCCC1	> 10 µM (inactive)
COC(=O)c1ccc2c(c1)C(C)(C)C(/C=C/c1ccc(O)cc1)=[N+]2C	> 10 µM (inactive)
CC1=NNC(=O)/C1=C\c1cn(-c2ccccc2)nc1-c1ccc(F)cc1	9.5 µM (inactive)
CC1CCCC(NCC(O)COC(c2ccc(F)cc2)c2ccc(F)cc2)C1C (stereo not drawn)	9.43 µM (inactive)
Cc1cccc(NS(=O)(=O)c2ccc(C3CCCCC3)cc2)c1	6.93 µM (inactive)
CCCOc1ccccc1C1CC(=O)NC(C)=C1C(=O)OCC(C)C (stereo not drawn)	5.14 µM (inactive)
CC(C)c1nnc(NC(=O)c2c(O)c3cccc4c3n(c2=O)CCC4)s1	4.99 µM (inactive)
CCOC(=O)C1=C(c2ccccc2)O/C(=C(/C#N)C(F)(F)F)S1	6.28 µM (inactive)
CCN(CC)CCOC(=O)c1ccc(N/C=C(/C#N)c2nc(-c3cccc(OC)c3)cs2)cc1	9.3 µM (inactive)
N#Cc1nccnc1S(=O)(=O)c1cccs1	2.67 µM
O=C(CCl)Nc1ccc(Sc2ccc(NC(=O)CCl)cc2)cc1	4.97 µM
Cn1c(=O)c([N+](=O)[O-])c(Cl)c2ccccc21	3.34 µM
O=C(CCl)N(c1ccc(Cl)cc1)c1c[nH]c2ccccc12	9.58 µM (inactive)
CC1=C(CO)C(=O)OC([C@@H](C)C2CC[C@H]3C4C[C@H]5O[C@]56[C@@H](O)C=CC(=O)[C@]6(C)C4CC[C@]23C)C1 (stereo partly drawn)	> 10 µM (inactive)
Cc1ccc(-c2nc3cc(NS(=O)(=O)c4ccc(C)cc4)ccc3o2)cc1	5.63 µM (inactive)
Cc1cc(C2=NNC(=NC3CC3)SC2)c(C)n1-c1ccccc1F	< 0.16 µM
Cc1ccc(Cn2c(SCC(=O)Nc3cc(C)on3)nc3ccccc3c2=O)cc1	5.78 µM (inactive)
